Three compounds from patent US20250154154A1 (Relay Binney Street, 2nd Floor, priority 2020, published 2025) can be followed below.

The term IC50 denotes the concentration that inhibits the measured activity by half.

For one test, the system named is RBE cells. Nature of the test: Cell Viability Protocol (CellTiterGlo), RBE cells. The class given is cell-based. Conditions: RBE or SNU-1079 cells, 72 or 120 hour, cell line and time not given. Summed up:
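RBE cells plated at 1200/well in RPMI 1640 with 10% FBS, incubated 24 h, then dosed with compound from DMSO stocks and incubated 72 or 120 h at 37° C. CellTiterGlo luminescence normalised to DMSO control; IC50 from 4-parameter fit.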

Test [1] concerns phospho-S6RP (Ser 235/236) in RBE cells. The experiment in a line: Cellular Proliferation Protocol (cellular phospho-S6RP HTRF), RBE cells. The class given is cell-based. Conditions: 6 h, 6 hours treatment, RBE or SNU-1079 cells, cell line not given. Summed up: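 RBE cells, 2000/well, seeded 24 h before 6 h compound treatment at 37° C. Lysates were probed with a Eu-cryptate/d2 HTRF antibody sandwich for phospho-S6RP (Ser 235/236), incubated overnight at room temperature. Signal normalised to DMSO control and IC50 fitted to a 4-parameter curve.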
For orientation: In TR-FRET formats the signal depends on donor and acceptor labels being close together.

The target of the next test is SRC (Homo sapiens, UniProt P12931). Nature of the test: SRC Biochemical Assay Protocol (microfluidic mobility shift assay, FLPeptide4 substrate). Summed up: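 Recombinant SRC (0.26 nM) preincubated 30 min at RT with compound (0.0017–100 μM) and 1.5 μM FLPeptide4, then 50 μM ATP added; 90 min reaction in HEPES pH 7.4, 10 mM MgCl2, 1% DMSO, EDTA-quenched. Phosphopeptide quantified by microfluidic mobility shift; IC50 from 4-parameter logistic fit.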
Chain of SRC (P12931 whole entry, species assumed): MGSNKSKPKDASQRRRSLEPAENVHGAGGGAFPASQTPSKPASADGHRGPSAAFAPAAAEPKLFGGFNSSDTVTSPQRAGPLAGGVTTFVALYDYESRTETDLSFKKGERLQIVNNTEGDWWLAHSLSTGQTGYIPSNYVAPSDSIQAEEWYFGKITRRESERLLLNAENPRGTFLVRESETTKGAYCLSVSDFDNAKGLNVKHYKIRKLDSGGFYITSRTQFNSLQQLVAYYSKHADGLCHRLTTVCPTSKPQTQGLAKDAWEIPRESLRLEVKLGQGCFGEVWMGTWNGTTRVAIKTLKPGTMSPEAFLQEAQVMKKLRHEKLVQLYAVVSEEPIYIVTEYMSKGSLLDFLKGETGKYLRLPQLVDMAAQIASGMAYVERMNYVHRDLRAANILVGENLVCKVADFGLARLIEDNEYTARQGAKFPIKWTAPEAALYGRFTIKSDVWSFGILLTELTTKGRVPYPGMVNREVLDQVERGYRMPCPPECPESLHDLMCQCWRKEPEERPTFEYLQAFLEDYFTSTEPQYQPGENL

For the compound `C=CC(=O)N1C[C@@H]2[C@@H](C#Cc3c(-c4ccc(Oc5ccccc5)cc4)c4c(N)ncnc4n3C3CCOC3)[C@@H]2C1` (stereo partly drawn) [II-209, 1-((1R,5S,6s)-6-((4-amino-5-(4-phenoxyphenyl)-7-(tetrahydrofuran-3-yl)-7H-pyrrolo[2,3-d]pyrimidin-6-yl)ethynyl)-3-aza-bicyclo[3.1.0]hexan-3-yl)prop-2-en-1-one], the half-maximal inhibitory concentration (IC50) (in the test on RBE cells; in test [1]; on SRC) was ≤ 10 nM each time.

Take `C=CC(=O)N1CCC(C#Cc2c(-c3ccc(Oc4cccc(C)n4)cc3)c3c(N)ncnc3n2C(C)C)CC1` [Example I-23]: the concentration for half-maximal inhibition (IC50) (with RBE cells; in test [1]; on SRC) was 10 to 1000 nM each time.

Regarding `C=CC(=O)N1CCC(C#Cc2c(-c3ccc(Oc4ccccc4)cc3)c3c(N)ncnc3n2C2CCNCC2)CC1` [Example I-40], the 50% inhibitory concentration (IC50) with RBE cells was in the range of 1000 to 10000 nM; in test [1], 1000 to 10000 nM; at SRC it was 10 to 1000 nM.
